Entries after “also recorded” stand apart in the source; their conditions may differ.
Tests used:
HCV2aChLuc (NS3:A156S) = assay: Infectivity of protease mutant virus versus wild type in the presence of compounds; assay type: cell-based, HCV genotype 2a; conditions: HCV2aChLuc (NS3:A156S) vs wild type HCV2aChLuc
Excerpt: Therefore, we introduced A156S mutation in the backbone of HCV2aChLuc genome and investigated the infectivity of the mutant virus in the presence of compounds.

HCV2aChLuc virus = assay: In vitro HCVcc entry assay: HCV2aChLuc virus infection of Huh7 cells, Renilla luciferase read-out; assay type: cell-based, HCV genotype 2a; conditions: for IC50: Hepatitis C virus, Huh-7, read-out: Activity class (IC50), tested according to the method of Example 3
HCV2a/2aChRluc virus = assay: Compound 5 with ribavirin or VX950 in the HCV2a/2aChRluc system; assay type: cell-based, HCV genotype 2a; conditions: ribavirin alone, 15 μM
Experimental: 100 μl of serially diluted compound solutions (100, 30, 10, 3, 1, 0.3, and 0.1 nM) was inoculated onto Huh-7 cells in a 96-well plate. Subsequently, 100 ul (TCID50, ˜0.6) of HCV2a/2aChRluc virus was added onto the cells. After co-incubation for 72 hrs, Renilla luciferase expression was determined (Renilla Luciferase Assay, Promega) and reported as relative light units (RLU).
Data analysis. Determinations of compound interactions were quantified based on the median-effect principle described by Chou and Talalay. Chou T., Talalay P., Adv. Enzyme. Regul., 1984, 22:27-55. Combination indices (CIs) were determined using Calcusyn (Biosoft) for each experiment at the EC50, EC75, and EC90 levels. Five replicates per condition were evaluated. A CI<0.9 was considered synergistic, a CI≧0.9 and ≦[…] was considered additive, and a CI>1.1 was deemed antagonistic.

HCV1a/2a chimeric virus = assay: HCV entry assay with HCV1a/2a chimeric virus; assay type: cell-based, HCV genotype 1a; conditions: ribavirin alone, 15 μM
Excerpt: Since HCV genotype 1 is the most prevalent genotype among the variants of HCV, we constructed an HCV1a/2a chimeric infectious clone with two cell-culture adaptive mutations introduced. Sequences for the structural proteins (including C, E1, and E2), p7, and NS2 were derived from HCV genotype 1a H77 strain. The rest of nonstructural proteins (NS3 to NS5B) and 3′ NTR were derived from HCV genotype 2a JFH strain. 5′NTR was originated from HCV2aJ6 (FIG. 7). […] Therefore, both HCV1a/2aCh virus and HCV1a/2aChLuc virus with Y361H and Q1251L mutations were successively produced in Huh7 cells and used for HCV entry assay.

[1] = Cytotoxicity of anti-HCV compounds (CC50, Table 4); conditions: human, Huh7.5.1 cells
Jc1-luc virus = assay: Luciferase compound activity assay, Jc1-luc virus in Huh7.5.1 cells; assay type: cell-based, HCV genotype-2a; conditions: Hepatitis C virus, Huh-7.5.1
Experimental: Cell culture. Human hepatoma Huh-7.5.1 cells or Huh7 cells were grown at 37° C. and 5% CO2 in Dulbecco's modification of Eagle's medium supplemented with 2 mM L-glutamine, 1 mM Sodium pyruvate, 1× Non-essential amino acids mix, 100 units/ml penicillin, 100 μg/ml streptomycin, and 10% fetal bovine serum.
Virus plasmids. The chimeric full-length construct pFL-JC1, a GT2a/2a chimera consisting of structural genes from the J6CF isolate and non-structural genes from the JFH1 isolate, has been described previously. See Backes et al., J. Virol. 2010, 84:5775-89; Schaller et al., J. Virol., 2007, 81:4591-603; Koutsoudakis et al., J. Virol. 2006, 80:5308-20; Pietschmann et al., Proc. Natl. Acad. Sci., 2006, 103:7408-13. The firefly luciferase gene has been inserted to pFL-Jc1 to develop a plamid pFL-Jc1-luc for use as a reporter of viral replication. See Amako et al., J. Virol. 2009, 83:9237-46. Specifically, the pFL-JC1-luc construct can be utilized to develop an infectious HCV cell culture system to test novel HCV inhibitors, including entry inhibitors, in vitro using luciferase expression.
Preparation of infectious HCV. Jc1-luc or HCV2a/2aChRluc RNA was in vitro transcribed using T7 RiboMAX™ Express Large Scale RNA Production System (Promega). After RNA clean up (Qiagen RNeasy Mini kit), transfection was performed as previously described.
400 microliters of a Huh-7.5.1 or Huh7 cell suspension (10^7 cells/ml) was placed in a 0.4-cm cuvette with 10 μg of Jc1-luc or HCV2a/2aChRluc RNA and electroporated (Bio-Rad Gene Pulser System) using a single square wave at 260 V and 25 ms pulse length. The cells were plated in 15-cm tissue culture dishes (Corning) and supernatant was harvested and concentrated using a centrifugal filter (Amicon 100K, Millipore).
Luciferase compound activity assay. Cell culture and luciferase compound assays were performed as previously described. See Wyles et al., J. Virol. 2007, 81:3005-8; Wyles et al., Antimicrob Agents Chemother. 2009, 53:2660-2; Grünberger et al., J. Infect. Dis. 2008, 197:42-5; Wyles et al., Antimicrob Agents Chemother, 2008, 52:1862-4. Briefly, Huh7.5.1 cells were seeded into 96-well plates at a density of 10,000 cells per well in 100 μl medium. After incubating overnight for attachment, Jc1-luc virus at an MOI 0.01 was added to wells with or without compounds at the specified concentrations. All conditions were run in triplicate. After 24 hours, medium was aspirated and replaced with 100 μl of complete medium containing an identical concentration of compound(s) followed by additional 48 hour incubation. The luciferase assay (Bright-Glo; Promega) was carried out according to the manufacturer's instructions. Luciferase activity was determined using a microplate luminometer (Veritas microplate luminometer; Turner Biosystems). […]

Row | Structure (SMILES) | IC50 (HCV2aChLuc virus) [nM] | also measured
1 | CCC[C@H](NC(=O)[C@@H]1[C@H]2CCC[C@H]2CN1C(=O)[C@@H](NC(=O)[C@@H](NC(=O)c1cnccn1)C1CCCCC1)C(C)(C)C)C(=O)C(=O)NC1CC1 [VX-950, reference compound] |  | resistance of NS3:A156S mutant virus versus wild type (inhibition of infectivity) (HCV2aChLuc (NS3:A156S)): high level resistance; also recorded: resistant; resistance of NS3:A156S mutant virus versus wild type (inhibition of infectivity) (HCV2aChLuc (NS3:A156S); listed as VX950): highly resistant
2 | NC(=O)c1ncn([C@@H]2O[C@H](CO)[C@@H](O)[C@H]2O)n1 [ribavirin, reference compound] |  | inhibitory effect on infectivity of 2a chimeric virus (HCV2aChLuc virus; ribavirin alone, 15 μM): did not have significant inhibitory effect; inhibitory effect on the infectivity of 2a chimeric virus (HCV2a/2aChRluc virus): did not have significant inhibitory effect; inhibitory effect on infectivity of HCV1a chimeric virus (HCV1a/2a chimeric virus): did not have significant inhibitory effect
3 | COc1ccc2c(O[C@@H]3C[C@H]4C(=O)N[C@]5(C(=O)O)C[C@H]5/C=C\CCCCC[C@H](NC(=O)OC5CCCC5)C(=O)N4C3)cc(-c3csc(NC(C)C)n3)nc2c1 [BILN2061, reference compound] |  | CC50 [1]: 35000 nM; EC50 (Jc1-luc virus): 492 ± 56.7 nM
4 | COc1ccc(C(C)(C)C)cc1NC(=O)C(=O)c1ccc(OC(C)C)c2ccccc12 [Compound 20, N-(5-tert-butyl-2-methoxyphenyl)-2-oxo-2-[4-(propan-2-yloxy)naphthalen-1-yl]acetamide] | < 5 | 
5 | COc1c(C#N)cc(C(C)(C)C)cc1NC(=O)C(=O)c1ccc(-c2ccc(NCCC(C)(C)C)nc2)c2ccccc12 [Compound 94] | > 500 | 
6 | CC(C)(C)CC(C)(C)NC(=O)C(=O)c1ccc(OCCN2CCOCC2)c2ccccc12 [Compound 67] | > 500 | 
7 | COc1c(NC(=O)C(=O)c2ccc(OCCN3CCOCC3)c3ccccc23)cc(C)cc1NS(C)(=O)=O [Compound 13, N-(2-methoxy-5-methyl-3-(methylsulfonamido)phenyl)-2-(4-(2-morpholinoethoxy)naphthalen-1-yl)-2-oxoacetamide] | 5 to 500 | 
8 | COc1c(NC(=O)C(=O)c2ccc(OCCN3CCNC(=O)C3)c3ccccc23)cc(C(C)(C)C)cc1NS(C)(=O)=O [Compound 53] | > 500 | 
9 | COc1c(NC(=O)C(=O)c2ccc(OC)c3ccccc23)cc(C(C)(C)C)cc1NS(C)(=O)=O [Compound 75] | 5 to 500 | 
10 | C[C@@]1(O)[C@H](O)[C@@H](CO)O[C@H]1n1cnc2c(N)ncnc21 [2′-C-methyladenosine, reference compound] |  | CC50 [1]: > 100000 nM; EC50 (Jc1-luc virus): 252 ± 33.5 nM
11 | COc1c(NC(=O)C(=O)c2ccc(OCCN3CCOCC3)c3ccccc23)cc(C(C)(C)C)cc1C(=O)Nc1ccccn1 [Compound 10, 5-tert-butyl-2-methoxy-3-(2-(4-(2-morpholinoethoxy)naphthalen-1-yl)-2-oxoacetamido)-N-(pyridin-2-yl)benzamide] | < 5 | 
12 | CC(=O)n1nc(C(C)(C)C)cc1NC(=O)C(=O)c1ccc(OCCN2CCOCC2)c2ccccc12 [Compound 46] | > 500 | 
13 | CNC(=O)c1sc(C(C)(C)C)cc1NC(=O)C(=O)c1ccc(OCCN2CCOCC2)c2ccccc12 [Compound 12, 5-tert-butyl-N-methyl-3-(2-(4-(2-morpholinoethoxy)naphthalen-1-yl)-2-oxoacetamido)thiophene-2-carboxamide] | < 5 | 
14 | O=C(Nc1cnc2ccccc2c1)C(=O)c1ccc(OCCN2CCOCC2)c2ccccc12 [Compound 81] | > 500 | 
15 | CC(C)(C)c1ccccc1NC(=O)C(=O)c1ccc(OCCN2CCOCC2)c2ccccc12 [Compound 43] | > 500 | 
16 | CC(C)(C)c1cc(NC(=O)C(=O)c2ccc(OCCN3CCOCC3)c3ccccc23)[nH]n1 [Compound 44] | > 500 | 
17 | CCCS(=O)(=O)Nc1cc(C(C)(C)C)cc(NC(=O)C(=O)c2ccc(OCC(=O)c3ccc(OC)cc3)c3ccccc23)c1OC [Compound 84] | > 500 | 
18 | CCNC(=O)c1cc(C(C)(C)C)cc(NC(=O)C(=O)c2ccc(OC)c3ccccc23)c1OC [Compound 8, 5-tert-butyl-N-ethyl-2-methoxy-3-(2-(4-methoxynaphthalen-1-yl)-2-oxoacetamido)benzamide] | < 5 | 
19 | CNc1ccc(-c2ccc(C(=O)C(=O)Nc3cc(C(C)(C)C)cc(C(=O)NC4CC4)c3OC)c3ccccc23)cn1 [Compound 130] | > 500 | 
20 | COc1c(N)cc(C(C)(C)C)cc1NC(=O)C(=O)c1cccc2ccccc12 [Compound 132] | > 500 | 
21 | CCC(C)(C)c1cc(NC(=O)C(=O)c2ccc(OCCN3CCOCC3)c3ccccc23)c(OC)c(C(C)(C)CC)c1 [Compound 23] | 5 to 500 | 
22 | Cc1ccc(-n2nc(C(C)(C)C)cc2NC(=O)C(=O)c2ccc(OCCN3CCS(=O)(=O)CC3)c3ccccc23)cc1 [Compound 36] | > 500 | 
23 | COc1c(NC(=O)C(=O)c2ccc(OCCN3CCOCC3)c3ccc(Cl)cc23)cc(C(C)(C)C)cc1NS(C)(=O)=O [Compound 74] | 5 to 500 | 
24 | CC(C)(C)c1cc(N)nc(NC(=O)C(=O)c2ccc(OCCN3CCOCC3)c3ccccc23)n1 [Compound 48] | > 500 | 
25 | COc1c(NC(=O)C(=O)c2ccc(OCCN3CCNCC3)c3ccccc23)cc(C(C)(C)C)cc1NS(C)(=O)=O [Compound 58] | > 500 | 
26 | Cc1ccc(C)c(NC(=O)C(=O)c2ccc(OCCN3CCOCC3)c3ccccc23)c1 [Compound 63] | > 500 | 
27 | COc1c(NC(=O)C(=O)c2ccc(OCCN3CCOCC3)c3ccccc23)cc(C(C)(C)C)cc1C(=O)N1CCOCC1 [Compound 24] | 5 to 500 | 
28 | COc1c(NC(=O)C(=O)c2ccc(OCCN3CCN(C(C)=O)CC3)c3ccccc23)cc(C(C)(C)C)cc1NS(C)(=O)=O [Compound 54] | 5 to 500 | 
29 | CC(C)(C)c1cc(C(F)(F)F)nc(NC(=O)C(=O)c2ccc(OCCN3CCOCC3)c3ccccc23)n1 [Compound 47] | > 500 | 

— patent US20110117055A1, “Methods of Treating Hepatitis C Virus with Oxoacetamide Compounds” (priority 2009, published 2011)
